Reference: patent US20050124625A1, “Piperazine derivatives and their use as modulators of nuclear hormone receptor function” (priority 2003, published 2005)

Experiments:
[1] = target: endogenous glucocorticoid receptor (Homo sapiens, UniProt P04150); details: concentration of ≦10 μM; 10 ng/ml PMA; A549 cells
Experimental: Cells are plated the day before the assay at approximately 40000 cells/well. […] Activity is measured by analysis in a luminometer as compared to control experiments treated with buffer or dexamethasome.

[2] = system: castrated rats, levator ani, seminal vesicles (SV) and prostate; assay: Levator ani & wet prostate weight assay, AR agonist assay; assay type: in vivo, rat; details: for EC50 (organ weight increase): castrated rats
Text: The activity of compounds of the present invention as AR agonists is investigated in an immature male rat model, a recognized test of anabolic effects in muscle and sustaining effects in sex organs for a given compound, as described in L. G. Hershberger et al., Proc. Soc. Expt. Biol. Med., 83, 175 (1953); B. L. Beyler et al, “Methods for evaluating anabolic and catabolic agents in laboratory animals”, J. Amer. Med. Women's Ass., 23, 708 (1968); H. Fukuda et al., “Investigations of the levator ani muscle as an anabolic steroid assay”, Nago Dai. Yak. Ken. Nem. 14, 84 (1966) the disclosures of which are herein incorporated by reference.
The basis of this assay lies in the well-defined action of androgenic agents on the maintenance and growth of muscle tissues and sexual accessory organs in animals and man. Androgenic steroids, such as testosterone (T), have been well characterized for their ability to maintain muscle mass. Treatment of animals or humans after castrations with an exogenous source of T results in a reversal of muscular atrophy. The effects of T on muscular atrophy in the rat levator ani muscle have been well characterized. M. Masuoka et al., “Constant cell population in normal, testosterone deprived and testosterone stimulated levator ani muscles” Am. J. Anat. 119, 263 (1966); Z. Gori et al., “Testosterone hypertrophy of levator ani muscle of castrated rats. I. Quantitative data” Boll.-Soc. Ital. Biol. Sper. 42, 1596 (1966); Z. Gori et al., “Testosterone hypertrophy of levator ani muscle of castrated rats. II. Electron-microscopic observations” Boll.-Soc. Ital. Biol. Sper. 42, 1600 (1966); A. Boris et al., Steroids 15, 61 (1970). As described above, the effects of androgens on maintenance of male sexual accessory organs, such as the prostate and seminal vesicles, is well described. Castration results in rapid involution and atrophy of the prostate and seminal vesicles. This effect can be reversed by exogenous addition of androgens. […]

[3] = system: immature castrated rats, ventral prostate (VP) and seminal vesicles (SV); assay: Wet prostate weight assay, AR antagonist assay; assay type: in vivo, rat; details: for EC50 (organ weight increase): immature castrated rats
Text: Biol. Med., 83, 175 (1953); P. C.
The basis of this assay is the fact that male sexual accessory organs, such as the prostate and seminal vesicles, play an important role in reproductive function. These glands are stimulated to grow and are maintained in size and secretory function by the continued presence of serum testosterone (T), which is the major serum androgen (>95%) produced by the Leydig cells in the testis under the control of the pituitary luteinizing hormone (LH) and follicle stimulating hormone (FSH). […] Adrenal androgens also contribute about 20% of total DHT in the rat prostate, compared to 40% of that in 65-year-old men. F. Labrie et al. Clin. Invest. Med., 16, 475-492 (1993). However, this is not a major pathway, since in both animals and humans, castration leads to almost complete involution of the prostate and seminal vesicles without concomitant adrenalectomy. […] […] […] Since the male sex organs are the tissues most responsive to modulation of the androgen activity, this model is used to determine the androgen dependent growth of the sex accessory organs in immature castrated rats.
Five days after surgery these castrated rats (60-70 g, 23-25 day-old) are dosed for 3 days. […] Animals are dosed (v/w) at 0.5 ml of vehicle/100 g body weight. […] Control vehicle • 2.
At the end of the 3-day treatment, the animals are sacrificed, and the ventral prostate weighed. To compare data from different experiments, the sexual organs weights are first standardized as mg per 100 g of body weight, and the increase in organ weight induced by TP was considered as the maximum increase (100%). ANOVA followed by one-tailed Student or Fischer's exact test is used for statistical analysis.
The gain and loss of sexual organ weight reflect the changes of the cell number (DNA content) and cell mass (protein content), depending upon the serum androgen concentration. See Y. Okuda et al., J. Urol., 145, 188-191 (1991), the disclosure of which is herein incorporated by reference. Therefore, measurement of organ wet weight is sufficient to indicate the bioactivity of androgens and androgen antagonist.

Chain of endogenous glucocorticoid receptor (P04150 whole entry): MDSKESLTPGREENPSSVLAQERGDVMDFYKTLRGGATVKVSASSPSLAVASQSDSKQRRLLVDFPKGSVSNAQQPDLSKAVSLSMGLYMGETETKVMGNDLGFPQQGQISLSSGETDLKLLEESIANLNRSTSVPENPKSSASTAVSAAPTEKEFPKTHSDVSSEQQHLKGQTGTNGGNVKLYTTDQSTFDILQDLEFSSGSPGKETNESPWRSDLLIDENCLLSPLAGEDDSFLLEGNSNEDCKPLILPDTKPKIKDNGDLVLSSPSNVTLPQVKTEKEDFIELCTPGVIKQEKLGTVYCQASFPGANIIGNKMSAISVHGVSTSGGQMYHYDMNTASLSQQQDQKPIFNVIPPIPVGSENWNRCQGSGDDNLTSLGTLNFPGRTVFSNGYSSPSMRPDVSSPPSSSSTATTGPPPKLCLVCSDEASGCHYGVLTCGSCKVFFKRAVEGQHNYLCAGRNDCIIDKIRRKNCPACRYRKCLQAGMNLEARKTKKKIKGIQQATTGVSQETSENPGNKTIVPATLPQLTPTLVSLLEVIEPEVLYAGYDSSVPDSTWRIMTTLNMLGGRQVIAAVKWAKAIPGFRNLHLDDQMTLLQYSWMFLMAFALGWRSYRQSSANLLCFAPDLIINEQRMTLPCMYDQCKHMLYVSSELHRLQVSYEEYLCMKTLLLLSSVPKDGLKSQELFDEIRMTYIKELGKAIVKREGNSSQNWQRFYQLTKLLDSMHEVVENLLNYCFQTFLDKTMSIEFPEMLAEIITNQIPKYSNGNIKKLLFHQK

Row | SMILES | suppression of activity (% inhibition of the reporter system vs buffer control with PMA) [1] [%] | EC50 (organ weight increase) [2] | EC50 (organ weight increase) [3] | potency higher than free T ([2]; rat, in vivo) | ED80 ([3]; immature castrated rat model) [mg] | potency higher than free T ([3]; rat, in vivo)
1 | C[C@@H]1C[C@H]2[C@@H]3CCC4=CC(=O)C=C[C@]4(C)[C@@]3(F)[C@@H](O)C[C@]2(C)[C@@]1(O)C(=O)CO [dexamethasone] | 65 | – | – | – | – | –
2 | C[C@]12CC[C@H]3[C@@H](CCC4=CC(=O)CC[C@@]43C)[C@@H]1CC[C@@H]2O [T, testosterone] | – | about 1 mg | about 1 mg | – | – | –
3 | CCC(=O)O[C@H]1CC[C@H]2[C@@H]3CCC4=CC(=O)CC[C@]4(C)[C@H]3CC[C@]12C [TP, testosterone propionate] | – | ~0.03 mg | ~0.03 mg | 10-30 fold | 0.1 | 10-30 fold
